According to patent US20050154537A1, “Methods, program products, and systems for single and multi-agent dosing and other related methods” (priority 2003, published 2005):

Experiments:
Type in all cases: in vivo
Conditions in all cases: days elapsed between current dose and marker
[1] = test system: Platelets; assay: Lookup table: marker validity (nadir) window, Platelets
From the text: (§1) A lookup table has been constructed (see above example), in the form of a table, to represent the relationship of each trial Agent and its qualified Clinical Markers. This table includes information regarding the Maximum Dose and the Inverse Marker Applicability for each Agent. The gray cells on the Cycle Dose Modifier indicate these values.
(§2) The table also includes information regarding the nadir of applicability for each Agent—Marker combination. The range, in days and indicated as the Lower Limit and Upper limit, has been determined by calculating a percentage (20%) above and below the true nadir value when only a single value is known. Otherwise, the upper and lower nadir values are used. […] The values of Upper and Lower limits is shown as a property of the Association between Markers and Agents. The Relevancy of a Marker can be computed using the lookup table by comparing the number of days elapsed between the date of the application of the current dose and the date on which the Marker was taken to the upper and lower values for that Agent Marker Association. If the elapsed days are greater than or equal to the lower limit and less than or equal to the upper limit, then the calculations provided by the Cycle Dose Modifier are said to be relevant and thereby applicable as indicated in the yellow Marker Validity cell. The Relevancy of Cycle Dose Modifier Calculations for Agent 1 is based on the Validity of Marker for Agent 1 calculated by: =IF(and((($B13−B6)>=VLOOKUP(B$3,Validity!$A$3:$K$8,10)),((B$13−B6)<=VLOOKUP(B$3,Validity!$A$3:$K$8,11))),“valid”,“invalid”)

[2] = test system: Neutrophil Count (ANC); assay: Lookup table: marker validity (nadir) window, Neutrophil Count (ANC)
From the text: as §1, §2

[3] = test system: Hemoglobin (Hgb); assay: Lookup table: marker validity (nadir) window, Hemoglobin (Hgb)
From the text: as §1, §2

With CC(=O)O[C@H]1C(=O)[C@@]2(C)[C@H]([C@H](OC(=O)c3ccccc3)[C@]3(O)C[C@H](OC(=O)[C@H](O)[C@@H](NC(=O)c4ccccc4)c4ccccc4)C(C)=C1C3(C)C)[C@]1(OC(C)=O)CO[C@@H]1C[C@@H]2O [Taxol] the “Platelets LL” value ([1]; lower limit of nadir range) was 8 days, the “Platelets UL” value ([1]; upper limit of nadir range) was 11 days and the “Neutrophil Count (ANC) LL” value ([2]; lower limit of nadir range) was 8 days. The “Neutrophil Count (ANC) UL” value ([2]; upper limit of nadir range) was 11 days, the “Hemoglobin (Hgb) LL” value ([3]; lower limit of nadir range) was 8 days and the “Hemoglobin (Hgb) UL” value ([3]; upper limit of nadir range) was 11 days.
